According to PubChem BioAssay (NCI):
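Results reflect a 48-hour exposure of cells in 96-well plates to compound at five concentrations. Abbreviation: GI50, concentration required for 50% inhibition of growth. TGI: concentration producing complete growth inhibition.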

Assays:
Experiment in all cases: NCI anticancer screen, dose series, 48 h
SW-620 colon = tested on: SW-620 colon
HCT-116 colon = tested on: HCT-116 colon
OVCAR-4 ovarian = tested on: OVCAR-4 ovarian
HCC-2998 colon = tested on: HCC-2998 colon
CCRF-CEM leukemia = tested on: CCRF-CEM leukemia
UACC-257 melanoma = tested on: UACC-257 melanoma
HOP-18 NSCLC = tested on: HOP-18 NSCLC
IGROV1 ovarian = tested on: IGROV1 ovarian
MOLT-4 leukemia = tested on: MOLT-4 leukemia
SF-295 CNS = tested on: SF-295 CNS
DMS 114 small cell lung = tested on: DMS 114 small cell lung
DLD-1 colon = tested on: DLD-1 colon
COLO 205 colon = tested on: COLO 205 colon
PC-3 prostate = tested on: PC-3 prostate
SK-OV-3 ovarian = tested on: SK-OV-3 ovarian
SK-MEL-5 melanoma = tested on: SK-MEL-5 melanoma
MDA-MB-231 breast = tested on: MDA-MB-231 breast
CAKI-1 renal = tested on: CAKI-1 renal
TK-10 renal = tested on: TK-10 renal

With C[CH2][Sn]([CH2]C)([O]C(=O)c1cccc(OC)c1)[O][Sn]([CH2]C)([CH2]C)[O]C(=O)c1cccc(OC)c1 the GI50 (SW-620 colon) was 16.7 µM, the TGI (SW-620 colon) was 33.1 µM and the GI50 (HCT-116 colon) was over 43.2 µM. The TGI (HCT-116 colon) was over 58.8 µM, the GI50 (OVCAR-4 ovarian) was 17.9 µM and the TGI (OVCAR-4 ovarian) was 35.3 µM. The GI50 (HCC-2998 colon) was over 76 µM, the TGI (HCC-2998 colon) was over 100 µM and the GI50 (CCRF-CEM leukemia) was 3.17 µM. It also gave a TGI (CCRF-CEM leukemia) of 17.7 µM, a GI50 (UACC-257 melanoma) of 17.2 µM and a TGI (UACC-257 melanoma) of 34.6 µM. The GI50 (HOP-18 NSCLC) was 15.9 µM, the TGI (HOP-18 NSCLC) was 29.3 µM and the GI50 (IGROV1 ovarian) was over 100 µM. It also gave a TGI (IGROV1 ovarian) of over 100 µM, a GI50 (MOLT-4 leukemia) of 27.9 µM and a TGI (MOLT-4 leukemia) of over 72.4 µM. The GI50 (SF-295 CNS) was 20.8 µM, the TGI (SF-295 CNS) was 40.3 µM and the GI50 (DMS 114 small cell lung) was 15.9 µM. The TGI (DMS 114 small cell lung) was 30.1 µM, the GI50 (DLD-1 colon) was 14.3 µM and the TGI (DLD-1 colon) was 29.6 µM. It also gave a GI50 (COLO 205 colon) of 22 µM, a TGI (COLO 205 colon) of over 54.8 µM and a GI50 (PC-3 prostate) of over 100 µM. The TGI (PC-3 prostate) was over 100 µM, the GI50 (SK-OV-3 ovarian) was over 100 µM and the TGI (SK-OV-3 ovarian) was over 100 µM. The GI50 (SK-MEL-5 melanoma) was 42.9 µM, the TGI (SK-MEL-5 melanoma) was over 64 µM and the GI50 (MDA-MB-231 breast) was 16 µM. The TGI (MDA-MB-231 breast) was 33.5 µM, the GI50 (CAKI-1 renal) was 11.8 µM and the TGI (CAKI-1 renal) was 24.3 µM. For the same compound, the GI50 (TK-10 renal) was 16.8 µM and the TGI (TK-10 renal) was 30.7 µM.
